Patent US12439917B2, “Method for controlling phakopsora pachyrhizi having resistance against QoI fungicide” (SUMITOMO CHEMICAL COMPANY, LIMITED, priority 2020, dated 2025)

Assays:
[1] = tested on: soybean rust fungus (Phakopsora pachyrhizi) having an amino acid substitution of F129L on mitochondrial cytochrome b protein; test: Comparative Test Example 1: soybean leaf disk test versus commercial QoI fungicides; assay type: in vivo; settings: method of Test Example 1
Method: A soybean leaf (cv; Kurosengoku) was punched out to 1 cm diameter to prepare a leaf disk. Each 1 mL of 1.2% agar medium was dispensed in 24 well microplate. A piece of the leaf disk was placed on each well. To a mixture of 0.5 μL of Sorpol (registered trademark) 1200KX, 4.5 μL of DMSO, and 5 μL of xylene was added 20 μL of a solution containing 10,000 ppm of the test compound in DMSO. The resulting mixture was diluted with ion exchange water to prepare a spray solution containing a predetermined concentration of the test compound. The spray solution was sprayed in 10 μL per one leaf disk. After 1 day, an aqueous suspension of spores of soybean rust fungus (Phakopsora pachyrhizi) having an amino acid substitution of F129L on mitochondrial cytochrome b protein (1.0×10^5/mL) was inoculated onto the leaf disks. After the inoculation, the microplate was placed in a growth chamber (light on for 6 hours, light off for 18 hours, 23° C. temperature, 60% humidity). After 1 day, the leaf disks were air-dried to disappear water droplets on the surface of the leaf disk, and the microplate was placed again in the growth chamber for 10 to 14 days. Thereafter, a lesion area of soybean rust disease was assessed. […] Here the untreated means that the spray solution containing the test compound was not sprayed onto the leaf disk.
The test was conducted by using as a test compound the compound 1, 4 or 9 of the present invention, the present compound 7, 8, 15, 18, 23, 31 or 37, pyribencarb, azoxystrobin, dimoxystrobin, metominostrobin, Fluoxastrobin, or Kresoxim-methyl at 50 ppm according to a method described in the Test Example 1. The results are indicated in [Table A] and [Table B].

[2] = tested on: soybean rust fungus strain with single amino acid substitution of F129L in the cytochrome b gene; settings: F129L QoI-resistant soybean rust fungi; background art; cited from earlier work

In the case of `CNC(=O)/C(=N/OC)c1ccccc1COc1cc(C)ccc1C` [Dimoxystrobin], the “Lesion area (%) at 50 ppm” value [1] is listed as 100% and the “efficacy against the resistant fungi” value [2] is listed as “reduced to the level of practical problems”.

For `CO/C=C(\Oc1cc(C2CC2)ccc1C)C(=O)OC` [Compound 1 of the present invention], the “Lesion area (%) at 50 ppm” value [1] was 0%.

In the case of `CO/C=C(\Oc1cc(Oc2ccccc2)ccc1C)C(=O)OC` [Present compound 15], the “Lesion area (%) at 50 ppm” value [1] was 0%.

For `CO/C=C(/C(=O)OC)c1ccccc1Oc1cc(Oc2ccccc2C#N)ncn1` [Azoxystrobin], the “Lesion area (%) at 50 ppm” value [1] is given as 100% and the “efficacy against the resistant fungi” value [2] is given as “reduced to the level of practical problems”.

With `CO/C=C(\Oc1cc(C2OCCCO2)ccc1C)C(=O)OC` [Compound 4 of the present invention] the “Lesion area (%) at 50 ppm” value [1] was 10%.

In the case of `CO/C=C(\Oc1cc(/N=C/N(C)c2ccccc2)ccc1C)C(=O)OC` [Compound 9 of the present invention], the “Lesion area (%) at 50 ppm” value [1] was 10%.

In the case of `CO/N=C(/C1=NOCCO1)c1ccccc1Oc1ncnc(Oc2ccccc2Cl)c1F` [Fluoxastrobin], the “Lesion area (%) at 50 ppm” value [1] is listed as 100% and the “efficacy against the resistant fungi” value [2] is listed as “reduced to the level of practical problems”.

For `CO/C=C(\Oc1cccc(C(=O)c2ccccc2)c1)C(=O)OC` [Present compound 8], the “Lesion area (%) at 50 ppm” value [1] was 10%.

For `CO/N=C(/C(=O)OC)c1ccccc1COc1ccccc1C` [Kresoxim-methyl], the “Lesion area (%) at 50 ppm” value [1] is listed as 100% and the “efficacy against the resistant fungi” value [2] is listed as “reduced to the level of practical problems”.

In the case of `COC(=O)NCc1cc(/C(C)=N/OCc2cccc(C)n2)ccc1Cl` [Pyribencarb], the “Lesion area (%) at 50 ppm” value [1] is given as 100% and the “efficacy against the resistant fungi” value [2] is given as “reduced to the level of practical problems”.

With `CO/C=C(\Oc1cc(Cc2ccccc2)ccc1C)C(=O)OC` [Present compound 18] the “Lesion area (%) at 50 ppm” value [1] was 0%.

For Metominostrobin, the “Lesion area (%) at 50 ppm” value [1] is listed as 100% and the “efficacy against the resistant fungi” value [2] is listed as “reduced to the level of practical problems”.

In the case of `CO/C=C(/C(=O)OC)N(C)c1cccc(Oc2ccccc2C)c1` [Present compound 7], the “Lesion area (%) at 50 ppm” value [1] was 10%.
